Assay results taken from patent US9220264B2, “Multimeric forms of antimicrobial peptides” (Singapore Health Services Pte Ltd., priority 2008, dated 2015).
In brackets after ≈: the same amount, converted by molar mass. Bridge positions count the residues as written; N and C are the ends. Peptide text beside a SMILES is read from it. I, II: the chains in the order shown.

Columns and labels:
Kp ATCC 10031 = format: cell-based, Klebsiella pneumoniae; details: ATCC 10031, 24 h
Method: The minimum inhibitory concentration (MIC) was determined using a broth microdilution method. Different strains of bacterial cells were grown in Mueller Hinton Broth (MHB) overnight. 100 μl of adjusted inoculum in MHB was added to 100 μl of each dilution of peptide or antibiotics dissolved in the broth, so as to yield a final cell density of 10^5 to 10^6 cfu/ml in each well of a microtitre plate. Additional microtitre plates may be used as necessary, if more wells are required for the assay or duplicate plates are required. The microtitre plates were incubated at 35° C. for 24 h and the absorbance at 600 nm (OD600) was monitored every 30 minutes. […] A positive control well contained the broth and organisms (no peptides/antibiotics), and a negative control well contains only the broth. The MIC of peptides for each clinical isolate or reference organism was recorded as the lowest concentration of peptide/antibiotic that inhibited visible growth of the test organism. […]

LPS = experiment: Competitive inhibition assay: effect of exogenous LPS on inhibitory activity; format: cell-based; details: peptide at 1×MIC in MHB; compared to B2088; FIG. 10(C)
Method: Effect of LPS and Mg^2+ on MIC: To examine the interaction of peptide and LPS, the concentration of the latter was added exogenously from (0.001-100 mg/ml) in MHB at a peptide concentration of 1×MIC. The % inhibition was estimated and the amount of LPS required for 50% of antibacterial activity (IC50) was determined.

PA 28753 = experiment: Bacterial viability assay (ED50); format: cell-based, Pseudomonas aeruginosa; details: 10 mM phosphate buffer; 37° C.; 22 h; read-out: ED50 (Effective dose to kill 50% of bacterial cells)
Method: (§1) Cell viability was conducted for two Gram-negative bacteria (Pa 9027 and Pa 27853). The cultures were grown overnight on trypticase soy (TS) agar and a few isolated colonies were inoculated to achieve a turbidity equivalent to 0.5 McFarland standard. The cell concentration was adjusted to 10^6 CFU/ml with 10 mM phosphate buffer and separated into different tubes to get final concentration of 10^5 CFU/ml. The peptides were added to the individual tubes to obtain concentrations of ⅛ MIC, ¼ MIC, ½ MIC, 1 MIC, 2 MIC and 4 MIC. The tubes were incubated at 37° C. for 22 h. Serial dilution was performed and 100 μL of the suspension was aliquot onto Mueller Hinton Agar (MHA) plate. The plates were incubated for 24 h at 37° C. for colony counting. Positive control was performed at Oh and 22h.

PA 9027 = experiment: Bacterial viability assay (ED50); format: cell-based, Pseudomonas aeruginosa
Method: as §1

P. aeruginosa = experiment: Time-kill kinetics assay; format: cell-based, Pseudomonas aeruginosa; details: both Pseudomonas strains; 1× and 2×MIC; USP phosphate buffer pH 7.2; 35° C.; FIG. 12
Method: The kinetics of bactericidal action was performed by the assay reported before. Briefly, few colonies of overnight grown P. aeruginosa strains were collected from tryptic soy agar plate and suspended in US pharmacopeia phosphate buffer (pH 7.2). The suspension was adjusted to an initial inoculum of 10^6 CFU/mL and incubated with various concentrations of B2088 and B2088—99 at 35° C. 0.1 ml aliquots were withdrawn at various time intervals, diluted 10^2-10^4 fold using the same buffer, plated on tryptic soy agar plates and incubated at 35° C. The colonies were counted after 24 h incubation and expressed as CFU/ml. Buffer without peptides served as a positive control and % bacterial viability is estimated using the following equation: Bacterial viability=1−(CFU/mL)peptide/(CFU/mL)control*100

P. aeruginosa ATCC 9027 = experiment: Outer membrane (OM) permeability assay (NPN uptake); format: cell-based, Pseudomonas aeruginosa; details: 5 mM HEPES buffer pH 7.2; 10 μM NPN; FIG. 13
Method: The membrane impermeable probe N-phenyl-1-naphthyl amine (NPN) was used to probe the OM permeability of peptides. An overnight culture of P. aeruginosa ATCC 9027 was harvested by centrifugation (3000 rpm, 4° C.). The pellet was washed 2 times and resuspended in 5 mM HEPES buffer (pH 7.2) to OD600 of 0.4. The cells were placed in a 10 mm stirred cuvette and NPN was added to a final concentration of 10 μM. Appropriate concentrations of B2088 was added and the increase in fluorescence intensity was monitored on a Quanta Master fluorescence spectrophotometer (Photon Technology International, New Jersey, USA). The excitation and emission wavelengths were set at 350 and 410 nm with slid widths at 2 and 5 nm, respectively. The % NPN uptake was calculated relative to the increase in NPN fluorescence intensity after the addition of 50 μM polymyxin B.
The peptide concentration required to cause 50% increase in the NPN fluorescence intensity (PC50) was measured.

## N=C(N)NCCC[C@H](NC(=O)CNC(=O)CNC(=O)[C@H](CCCCN)NC(=O)[C@H](CCCNC(=N)N)NC(=O)CNC(=O)[C@@H](N)CCCNC(=N)N)C(=O)N[C@@H](CCCNC(=N)N)C(=O)NCCCC[C@H](NC(=O)[C@H](CCCNC(=N)N)NC(=O)[C@H](CCCNC(=N)N)NC(=O)CNC(=O)CNC(=O)[C@H](CCCCN)NC(=O)[C@H](CCCNC(=N)N)NC(=O)CNC(=O)[C@@H](N)CCCNC(=N)N)C(=O)N[C@@H](CCCCN)C(=O)O [B2088_99, (RGRKGGRR)2KK] (I: H-RGRKGGRRKK-OH / II: H-RGRKGGRR; amide I:9-II:C; N-terminus assumed)
Kp ATCC 10031
  Minimum inhibitory concentration (MIC): 1.5 µM (≈ 3.18 µg/mL)
LPS
  concentration of LPS to suppress the inhibitory activity: higher concentration of LPS
PA 28753
  EC50: 480 ± 30 nM
PA 9027; 10 mM phosphate buffer, 37° C., 22 h, read-out: ED50 (Effective dose to kill 50% of bacterial cells)
  EC50: 330 ± 50 nM
PA 9027; Pa 9027 and Pa 27853, Table 22 and FIG. 11
  ED50 compared with B2088: two times lower
P. aeruginosa
  kill kinetics: faster kill kinetics
P. aeruginosa ATCC 9027
  PC50 (peptide concentration to cause 50% increase in NPN fluorescence intensity): higher than B2088
